ChEMBL document CHEMBL2150990, “Substrate-like water soluble lipase inhibitors from Filipendula kamtschatica” (Bioorg Med Chem Lett, 2012)

Assays:
[1] = molecular target: T1, Pancreatic triacylglycerol lipase (Sus scrofa, UniProt P00591); assay: Inhibition of porcine pancreatic lipase using micellar solution of triolein as substrate preincubated for 5 mins before substrate addition measured after 30 mins
T1 sequence (P00591 whole entry): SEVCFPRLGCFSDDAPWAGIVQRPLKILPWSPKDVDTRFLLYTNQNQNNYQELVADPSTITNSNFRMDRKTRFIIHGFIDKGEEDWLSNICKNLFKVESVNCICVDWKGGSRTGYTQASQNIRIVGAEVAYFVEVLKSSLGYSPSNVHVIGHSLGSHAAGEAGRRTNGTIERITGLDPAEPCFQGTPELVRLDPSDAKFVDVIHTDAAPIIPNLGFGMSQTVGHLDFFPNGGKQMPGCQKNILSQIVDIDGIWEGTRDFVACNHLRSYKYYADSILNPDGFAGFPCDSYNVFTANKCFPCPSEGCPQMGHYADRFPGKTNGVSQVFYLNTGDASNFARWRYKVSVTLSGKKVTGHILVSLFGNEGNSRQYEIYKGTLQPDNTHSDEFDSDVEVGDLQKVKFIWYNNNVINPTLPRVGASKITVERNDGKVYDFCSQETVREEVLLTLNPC

[2] = molecular target: T2, Pancreatic triacylglycerol lipase (Sus scrofa) (UniProt P00591); assay: Inhibition of porcine pancreatic lipase using micellar solution of triolein as substrate at 1 mM preincubated for 5 mins before substrate addition measured after 30 mins
T2 sequence (whole entry): T1 sequence (P00591 whole entry)

[3] = molecular target: T2, Pancreatic triacylglycerol lipase (Sus scrofa); conditions: 0.4 uM
Description: Inhibition of porcine pancreatic lipase using micellar solution of triolein as substrate at 0.4 uM preincubated for 5 mins before substrate addition measured after 30 mins

SMILES: O=C(/C=C/c1ccc(O)c(O)c1)O[C@@H](C(=O)O)[C@@H](O)COC(=O)c1cc(O)c(O)c(O)c1
- IC50 [1]: 246 µM

SMILES: O=C(O)/C=C/c1ccc(O)c(O)c1 [CAFFEIC ACID]
- IC50 [1]: > 1000 µM
- inhibition [2]: 13%

SMILES: O=C(/C=C/c1ccc(O)c(O)c1)O[C@@H](COC(=O)c1cc(O)c(O)c(O)c1)[C@@H](O)C(=O)O
- IC50 [1]: 26 µM

SMILES: CCCCCCCCCCC[C@@H](C[C@@H]1OC(=O)[C@H]1CCCCCC)OC(=O)[C@H](CC(C)C)NC=O
- inhibition [3]: 55%

SMILES: O=c1c(O[C@@H]2O[C@H](CO)[C@H](O)[C@H](O)[C@H]2O[C@@H]2OC[C@@H](O)[C@H](O)[C@H]2O)c(-c2ccc(O)c(O)c2)oc2cc(O)cc(O)c12
- IC50 [1]: 300 µM

SMILES: O=C(O)c1cc(O)c(O)c(O)c1 [GALLIC ACID]
- IC50 [1]: > 1000 µM
- inhibition [2]: 4%

SMILES: O=C(O)[C@H](O)[C@@H](O)CO [L-THREONIC ACID]
- IC50 [1]: > 1000 µM
- inhibition [2]: 30%
